Values of other authors as cited in patent US6887863B2, “Hydrazide and alkoxyamide angiogenesis inhibitors” (Abbott Laboratories, priority 2000, dated 2005).

Biological target: type 2-methionine aminopeptidase (MetAP2) (Homo sapiens, UniProt P50579)
Settings: reported in Proc. Natl. Acad. Sci. USA 94: 6099-6103 (1997) and Chemistry and Biology 4(6): 461-471 (1997)

Sequence of type 2-methionine aminopeptidase (MetAP2) (P50579 whole entry, species assumed): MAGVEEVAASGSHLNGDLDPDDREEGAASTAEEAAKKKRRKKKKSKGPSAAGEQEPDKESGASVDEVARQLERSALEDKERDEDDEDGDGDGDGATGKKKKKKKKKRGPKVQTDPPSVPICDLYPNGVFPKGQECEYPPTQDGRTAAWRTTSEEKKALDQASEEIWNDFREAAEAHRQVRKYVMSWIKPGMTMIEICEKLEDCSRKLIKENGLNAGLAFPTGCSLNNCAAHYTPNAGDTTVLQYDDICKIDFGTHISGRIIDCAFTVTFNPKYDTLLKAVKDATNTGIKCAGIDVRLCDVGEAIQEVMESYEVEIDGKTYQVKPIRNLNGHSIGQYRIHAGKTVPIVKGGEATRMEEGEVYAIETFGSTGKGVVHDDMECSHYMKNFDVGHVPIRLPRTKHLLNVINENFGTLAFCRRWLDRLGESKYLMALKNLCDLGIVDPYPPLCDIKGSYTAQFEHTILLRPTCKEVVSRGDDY

CO[C@@H]1[C@H](OC(=O)NC(=O)CCl)CC[C@]2(CO2)[C@H]1[C@@]1(C)O[C@@H]1CC=C(C)C [AGM-1470]
inactivation of MetAP2: covalently inactivate
